In one assay the target is DNA-PK (Homo sapiens (Human), UniProt P78527). The experiment in a line: DNA-PK Enzyme-Linked Immunosorbent Assay (phosphorylation of GST-p53 (1-101) peptide). The note with it: ELISA, ATP 20 μM. The format is biochemical. The method, boiled down:
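Inhibition measured by 450 nm absorbance after HRP/TMB detection of phospho-Ser15 on immobilized GST-p53 (1-101). The kinase reaction used 0.1 μg/mL DNA-PK and 20 μM ATP, 1 h at 25 °C. Ten 3-fold compound dilutions, top final concentration 100 nM.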
For orientation: ELISA stands for enzyme-linked immunosorbent assay.

For the next assay, the target named is ATM (Homo sapiens (Human), UniProt Q13315). Nature of the assay: ATM in Cell Western Assay (pKAP1 in etoposide-treated MCF-7 cells). The format is cell-based. The following applies: MCF-7 cells, etoposide 100 μM, 1 hr, pKAP1 readout. The method, boiled down:
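After paraformaldehyde fixation and Triton X-100 permeabilization, immunostained plates were read by infrared scanning (ODYSSEY CLx). Compound was given as 10 doses, 3-fold dilutions from a 1 μM final top concentration.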

Structures can show the parent of a compound that is named as a salt.

Chain of ATM (Q13315 whole entry): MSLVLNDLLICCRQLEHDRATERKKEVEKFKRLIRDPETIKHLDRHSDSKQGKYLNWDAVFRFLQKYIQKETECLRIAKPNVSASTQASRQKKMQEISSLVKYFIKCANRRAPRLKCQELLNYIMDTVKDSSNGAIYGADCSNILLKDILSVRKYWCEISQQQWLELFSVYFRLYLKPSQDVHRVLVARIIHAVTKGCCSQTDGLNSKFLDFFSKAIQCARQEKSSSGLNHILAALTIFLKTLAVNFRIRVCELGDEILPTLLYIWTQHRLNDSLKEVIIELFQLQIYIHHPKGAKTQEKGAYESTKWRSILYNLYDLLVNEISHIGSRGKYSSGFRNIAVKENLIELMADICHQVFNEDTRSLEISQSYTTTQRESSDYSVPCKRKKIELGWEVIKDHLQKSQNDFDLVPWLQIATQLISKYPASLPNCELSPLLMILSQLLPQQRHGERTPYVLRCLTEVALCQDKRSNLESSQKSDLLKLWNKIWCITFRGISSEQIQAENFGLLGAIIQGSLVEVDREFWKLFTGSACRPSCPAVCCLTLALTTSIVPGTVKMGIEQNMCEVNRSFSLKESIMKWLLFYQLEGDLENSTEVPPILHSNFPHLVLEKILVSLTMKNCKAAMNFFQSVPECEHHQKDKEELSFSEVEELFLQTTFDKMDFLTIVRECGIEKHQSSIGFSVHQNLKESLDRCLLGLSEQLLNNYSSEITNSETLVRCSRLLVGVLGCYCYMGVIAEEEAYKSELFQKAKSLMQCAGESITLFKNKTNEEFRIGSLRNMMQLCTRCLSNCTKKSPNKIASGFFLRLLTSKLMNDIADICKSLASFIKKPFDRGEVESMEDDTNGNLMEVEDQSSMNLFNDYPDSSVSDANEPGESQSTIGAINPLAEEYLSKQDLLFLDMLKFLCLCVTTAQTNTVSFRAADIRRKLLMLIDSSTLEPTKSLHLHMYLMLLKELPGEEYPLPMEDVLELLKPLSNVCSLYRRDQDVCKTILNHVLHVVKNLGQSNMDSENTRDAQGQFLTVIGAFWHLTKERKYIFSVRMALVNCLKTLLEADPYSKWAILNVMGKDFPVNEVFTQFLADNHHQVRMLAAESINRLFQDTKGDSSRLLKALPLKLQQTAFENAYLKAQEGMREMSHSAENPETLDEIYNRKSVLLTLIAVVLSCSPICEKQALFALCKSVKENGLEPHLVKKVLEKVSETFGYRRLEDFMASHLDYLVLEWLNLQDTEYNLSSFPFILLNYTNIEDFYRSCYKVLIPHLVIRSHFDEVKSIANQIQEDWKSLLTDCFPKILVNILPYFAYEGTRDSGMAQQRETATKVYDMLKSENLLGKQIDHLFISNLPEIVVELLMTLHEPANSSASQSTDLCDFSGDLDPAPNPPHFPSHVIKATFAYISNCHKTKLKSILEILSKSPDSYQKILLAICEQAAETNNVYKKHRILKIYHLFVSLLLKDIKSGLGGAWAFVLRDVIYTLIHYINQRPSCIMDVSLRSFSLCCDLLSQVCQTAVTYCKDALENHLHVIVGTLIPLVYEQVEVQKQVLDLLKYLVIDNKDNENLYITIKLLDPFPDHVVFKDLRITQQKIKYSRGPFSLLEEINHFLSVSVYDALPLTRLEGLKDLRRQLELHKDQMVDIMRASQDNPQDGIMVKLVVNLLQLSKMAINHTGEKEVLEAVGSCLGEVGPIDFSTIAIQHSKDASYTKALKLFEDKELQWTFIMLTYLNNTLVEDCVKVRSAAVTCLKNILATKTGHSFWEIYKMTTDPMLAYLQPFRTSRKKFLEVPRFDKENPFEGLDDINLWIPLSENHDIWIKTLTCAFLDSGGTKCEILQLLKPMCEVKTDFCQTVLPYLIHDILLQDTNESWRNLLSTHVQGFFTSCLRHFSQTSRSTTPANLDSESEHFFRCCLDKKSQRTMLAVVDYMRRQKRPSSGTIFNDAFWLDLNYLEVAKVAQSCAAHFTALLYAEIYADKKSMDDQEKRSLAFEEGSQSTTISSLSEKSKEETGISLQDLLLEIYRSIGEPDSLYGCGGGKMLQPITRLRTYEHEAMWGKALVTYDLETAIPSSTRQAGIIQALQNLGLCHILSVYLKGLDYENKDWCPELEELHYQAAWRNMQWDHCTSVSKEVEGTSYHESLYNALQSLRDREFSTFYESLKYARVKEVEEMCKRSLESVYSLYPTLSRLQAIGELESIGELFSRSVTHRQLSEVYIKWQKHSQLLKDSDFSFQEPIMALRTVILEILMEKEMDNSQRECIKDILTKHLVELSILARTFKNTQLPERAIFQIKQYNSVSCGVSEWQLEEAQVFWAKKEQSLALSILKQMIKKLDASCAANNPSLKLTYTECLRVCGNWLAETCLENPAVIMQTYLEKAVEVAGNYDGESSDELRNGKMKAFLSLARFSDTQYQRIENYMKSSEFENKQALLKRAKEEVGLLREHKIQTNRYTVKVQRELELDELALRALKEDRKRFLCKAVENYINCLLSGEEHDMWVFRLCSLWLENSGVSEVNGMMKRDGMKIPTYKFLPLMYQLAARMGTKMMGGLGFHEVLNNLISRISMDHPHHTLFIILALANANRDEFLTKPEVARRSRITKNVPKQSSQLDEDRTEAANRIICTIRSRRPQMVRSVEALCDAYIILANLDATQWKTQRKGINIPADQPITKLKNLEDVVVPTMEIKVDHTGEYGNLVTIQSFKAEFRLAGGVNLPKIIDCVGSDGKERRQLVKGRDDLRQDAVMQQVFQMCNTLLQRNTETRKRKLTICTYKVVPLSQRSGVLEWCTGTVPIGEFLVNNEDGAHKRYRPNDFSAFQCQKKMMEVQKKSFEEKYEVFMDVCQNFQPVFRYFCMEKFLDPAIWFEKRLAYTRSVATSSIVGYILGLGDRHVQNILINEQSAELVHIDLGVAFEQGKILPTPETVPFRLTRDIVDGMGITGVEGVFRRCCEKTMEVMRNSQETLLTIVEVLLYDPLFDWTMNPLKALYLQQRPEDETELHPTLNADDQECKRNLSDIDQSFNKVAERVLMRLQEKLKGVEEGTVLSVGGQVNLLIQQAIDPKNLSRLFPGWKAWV

As for `CN1CCN(c2ncc(-c3cc4c5c(cnc4cc3F)N(C)C(=O)C53CC3)cc2NS(=O)(=O)c2ccccc2)CC1` [Example 117, N-(5-(7′-Fluoro-3′-methyl-2′-oxo-2′,3′-dihydrospiro [cyclopropane-1,1′-pyrrolo[2,3-c]quinolin]-8′-yl)-2-(4-methylpiperazin-l-yl)Pyridin-3-yl)benzenesulfonamide hydrochloride], the IC50 against DNA-PK and at ATM was 1 to 100 nM in each case.
In the case of `CN1C(=O)C2(CC2)c2c1cnc1cc(F)c(-c3cnc(OCCCN4CCCCC4)c(NS(=O)(=O)c4ccccc4)c3)cc21` [Example 118, N-(5-(7′-Fluoro-3′-methyl-2′-oxo-2′,3′-dihydrospiro[cyclopropane-1,1′-pyrrolo[2,3-c]quinolin]-8′-yl)-2-(3-(piperidin-1-yl)propoxy)pyridin-3-yl)benzenesulfonamide hydrochloride], the half-maximal inhibitory concentration (IC50) on DNA-PK and at ATM was 1 to 100 nM throughout.
Regarding `COc1ccc(S(=O)(=O)Nc2cc(-c3ccc4ncc5c(c4c3)C3(CC3)C(=O)N5C)cnc2OCCCN2CCCCC2)cc1` [Example 119, 4-Methoxy-N-(5-(3′-methyl-2′-oxo-2′,3′-dihydrospiro[cyclopropane-1,1′-pyrrolo[2,3-c]quinolin]-8′-yl)-2-(3-(piperidin-1-yl)propoxy)pyridin-3-yl(benzenesulfonamide hydrochloride], the IC50 against DNA-PK is below 0.5 nM; on ATM, 1 to 100 nM.
For `CN(C)CCCOc1ncc(-c2ccc3ncc4c(c3c2)C2(CC2)C(=O)N4C)cc1NS(=O)(=O)c1ccc(OC(F)(F)F)cc1` [Example 121, N-(2-(3-(Dimethylamino)propoxy)-5-(3′-methyl-2′-oxo-2′,3′-dihydrospiro[cyclopropane-1,1′-pyrrolo[2,3-c]quinolin]-8′-yl)pyridin-3-yl)-4-(trifluoromethoxy)benzenesulfonamide], in that order: below 0.5 nM and 1 to 100 nM.
On the same counts, the results for `CN(C)CCCOc1ncc(-c2ccc3c(c2)c2c(c[n+]3[O-])N(C)C(=O)C23CC3)cc1NS(=O)(=O)c1ccccc1` [Example 123, 8′-(6-(3-(Dimethylamino)propoxy)-5-(phenylsulfonamido)pyridin-3-yl)-3′-methyl-2′-oxo-2′,3′-dihydrospiro[cyclopropane-1,1′-pyrrolo[2,3-c]quinoline]5′-oxide] are 1 to 100 nM and 1 to 100 nM.
In the case of `CN1C(=O)C2(CC2)c2c1cnc1cc(F)c(-c3cnc(OCCCN4CCCC4)c(NS(=O)(=O)c4ccccc4)c3)cc21` [Example 124, N-(5-(7′-Fluoro-3′-methyl-2′-oxo-2′,3′-dihydrospiro[cyclopropane-1,1′-pyrrolo[2,3-c]quinolin]-8′-yl)-2-(3-(pyrrolidin-1-yl)propoxy)pyridin-3-yl)benzenesulfonamide], the half-inhibitory concentration (IC50) against DNA-PK and against ATM was 1 to 100 nM in each case.
Regarding `CN(C)CCCOc1ncc(-c2ccc3ncc4c(c3c2)C2(CC2)C(=O)N4C)cc1NS(=O)(=O)c1cc(Cl)cc(Cl)c1` [Example 125, 3.5-Dichloro-IN-(2-(3-(dimethylamino)propoxy)-5-(3′-methyl-2′-oxo-2′,3′-dihydrospiro[cyclopropane-1,1′-pyrrolo[2,3-c]quinolin]-8′-yl)pyridin-3-yl)benzenesulfonamide], the IC50 was below 0.5 nM at DNA-PK and 1 to 100 nM on ATM.
For `CN(C)CCCOc1ncc(-c2ccc3ncc4c(c3c2)C2(CC2)C(=O)N4C)cc1NS(=O)(=O)c1ccc(OC(F)F)cc1` [Example 126, 4-(Difluoromethoxy)-N-(2-(3-(dimethylamino)propoxy)-5-(3′-methyl-2′-oxo-2′,3′-dihydrospiro[cyclopropane-1,1′-pyrrolo[2,3-c]quinolin]-8′-yl)pyridin-3-yl)benzenesulfonamide], in that order: below 0.5 nM and 1 to 100 nM.
For `CN(C)CCCOc1ncc(-c2ccc3ncc4c(c3c2)C2(CC2)C(=O)N4C)cc1NS(=O)(=O)c1ccc(C(C)(C)C)cc1` [Example 127], in that order: 1 to 100 nM and 1 to 100 nM.

Broadly, the IC50 is the midpoint of a concentration-inhibition curve. A high value points to weaker potency in that assay.
